{
  "source": "paper PMC6927504",
  "about": "“Screening of House Dust from Chinese Homes for Chemicals with Liver X Receptors Binding Activities and Characterization of Atherosclerotic Activity Using an in Vitro Macrophage Cell Line and ApoE^−/− Mice” (Environmental Health Perspectives, 2019)",
  "key": {"human LXRβ": {"target": "T1, human LXRβ (Homo sapiens, UniProt P55055)", "T1 sequence (P55055 219-460)": "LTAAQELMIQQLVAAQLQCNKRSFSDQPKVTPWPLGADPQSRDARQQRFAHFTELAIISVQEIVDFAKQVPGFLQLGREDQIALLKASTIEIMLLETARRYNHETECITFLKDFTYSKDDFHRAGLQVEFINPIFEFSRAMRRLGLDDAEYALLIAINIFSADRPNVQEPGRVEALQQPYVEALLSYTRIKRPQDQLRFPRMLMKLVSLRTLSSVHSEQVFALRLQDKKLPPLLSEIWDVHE", "experiment": "Yeast two-hybrid assay (LXRβ LBD with coactivator TIF2, β-galactosidase readout)"}, "[1]": {"system": "peroxisome proliferator-activated receptor-γ (PPARγ)", "parameters": "method as in Hu et al. 2017; Pillai et al. 2014", "conditions": "ref Hu et al. 2017; Pillai et al. 2014; cited from earlier work"}, "ABCG1": {"system": "ABCG1", "experiment": "qRT-PCR of LXR target gene ABCG1 in RAW264.7 macrophages", "assay_type": "cell-based", "conditions": "vehicle-treated cells set to 1", "method": "RAW264.7 cells were obtained from the National Infrastructure of Cell Line Resource of Beijing, China, and the cells used for the experiment were cultured for at least three passages. Dulbecco’s Modified Eagle’s Medium (DMEM)-F12 medium containing 10% fetal bovine serum (FBS) was employed to culture the RAW264.7 cells. RAW264.7 cells were incubated at 37°C with 5% carbon dioxide. The RAW264.7 cells were plated at 2.5×10^5 cells/well (6-well plates), 6.0×10^4 cells/well (24-well plates), and 10^4 cells/well (96-well plates). The RAW264.7 cells were plated and grown overnight; then the medium was removed and fresh DMEM-F12 contained with 0.1% DMSO (control; n=3 ) or TPHP at the concentrations of 1–20,000 nM ( n=3 per group) was added. […] Then the cells were used for the quantitative reverse transcription (qRT)-PCR, cellular cholesterol efflux assay, and foam cell formation experiment.\nTotal RNA was isolated from RAW264.7 cells and mouse peritoneal macrophages using TRIzol reagent according to the manufacturer’s instructions. Then a Nanovue Plus™ spectrophotometer (GE Healthcare Life Science) was used to analyze the concentration, quality, and purity of the RNA. Total RNA ( 1μg ) was mixed with oligo deoxythymine (dT) ( 1μL ) at 70°C for 5 min and then combined with a mixture containing Moloney murine leukemia virus (MMLV) reverse transcriptase ( 1μL ), deoxy-ribonucleoside triphosphate (dNTP) ( 1.25μL ), Recombinant RNasin® Ribonuclease Inhibitor (Promega) ( 0.65μL ), and MMLV buffer ( 5μL ) at 42°C for 60 min. The SYBR® Green PCR Kit (TOYOBO) was used for RT-PCR analysis. Real-time fluorescence detection was performed using the StepOnePlus™ sequence detection system (Applied Biosystems). […] The following primers were designed and purchased from Sangon Biotech:\n• actin: 5′-[…]-3′ and 5′-[…]-3′ ATP-binding cassette transporter A1 (ABCA1): 5′-[…]-3′ and 5′-[…]-3′ • ATP-binding cassette transporter G1 (ABCG1): 5′-[…]-3′ and 5′-[…]-3′."}},
  "data": [
    {"compound": "O=P(Oc1ccccc1)(Oc1ccccc1)Oc1ccccc1", "note": "[TPHP, triphenyl phosphate]", "values": [
      {"measurement": "Contribution to the LXRβ-antagonist activity of SRM2585", "setting": "human LXRβ; dust standard reference material SRM2585", "value": 12.68, "unit": "%"},
      {"measurement": "Share of the LXRβ-antagonist activity of indoor dust explained by the chemical", "setting": "human LXRβ; range over indoor dust samples (Table S4)", "value": "0.37–32.60%"},
      {"measurement": "PPARγ activity", "setting": "[1]", "value": "agonist"},
      {"measurement": "ABCG1 gene expression relative to control", "setting": "ABCG1; 100 nM, p<0.05", "value": "0.87±0.05", "unit": "fold"},
      {"measurement": "ABCG1 gene expression relative to control", "setting": "ABCG1; 1,000 nM, p<0.05", "value": "0.80±0.06", "unit": "fold"},
      {"measurement": "ABCG1 gene expression relative to control", "setting": "ABCG1; 5,000 nM, p<0.01", "value": "0.52±0.02", "unit": "fold"},
      {"measurement": "ABCG1 gene expression relative to control", "setting": "ABCG1; 10,000 nM, p<0.01", "value": "0.42±0.05", "unit": "fold"},
      {"measurement": "ABCG1 gene expression relative to control", "setting": "ABCG1; 20,000 nM, p<0.01", "value": "0.28±0.02", "unit": "fold"}
    ]}
  ]
}
